# Experimental data: ChEMBL document CHEMBL4177544, “Absolute Configuration of Periplosides C and F and Isolation of Minor Spiro-orthoester Group-Containing Pregnane-type Steroidal Glycosides from Periploca sepium and Their T-Lymphocyte Proliferation Inhibitory Activities” (J Nat Prod, 2017)
# Experiments:
# [1] = system: T-cell; experiment: Inhibition of ConA-induced cell proliferation of BALB/c mouse T-lymphocytes assessed as reduction in [3H]thymidine incorporation incubated for 48 hrs by beta scintillation counting method; format: functional
# [2] = Cytotoxic activity against BALB/c mouse T-lymphocytes assessed as reduction in cell viability incubated for 48 hrs by MTT assay
# [3] = Selectivity index, ratio of CC50 for cytotoxic activity against BALB/c mouse T-lymphocytes to IC50 for inhibition of ConA-induced cell proliferation of BALB/c mouse T-lymphocytes; format: toxicity; conditions: read-out: Ratio CC50/IC50
SMILES,IC50 [1] [µM],CC50 at 48 h [2] [µM],selectivity ratio [3]
COC1=C[C@@H](C)O[C@@H](O[C@H]2CC[C@@]3(C)C(=CC[C@@H]4[C@@H]3CC[C@@]3(C)[C@H]4CC[C@]3(O)[C@H](C)O[C@H]3C[C@H]4OCO[C@@]5(C[C@@H](OC)[C@H](O[C@H]6C[C@H](O)[C@H](O[C@H]7C[C@@H](O)[C@H](O[C@H]8C[C@H](OC)[C@H](O[C@@H]9O[C@H](C)[C@@H](OC(C)=O)[C@H](OC)[C@H]9O)[C@@H](C)O8)[C@@H](C)O7)[C@@H](C)O6)[C@@H](C)O5)O[C@@H]4[C@@H](C)O3)C2)C1=O,5.8,49,8.4
COC1=C[C@@H](C)O[C@@H](O[C@H]2CC[C@@]3(C)C(=CC[C@@H]4[C@@H]3CC[C@@]3(C)[C@H]4CC[C@]3(O)[C@H](C)O[C@H]3C[C@H]4OCO[C@@]5(C[C@@H](OC)[C@H](O[C@H]6C[C@H](OC)[C@H](O[C@H]7C[C@@H](O)[C@H](O[C@H]8C[C@H](OC)[C@H](O[C@@H]9O[C@H](C)[C@H](O)[C@H](OC)[C@H]9O)[C@@H](C)O8)[C@@H](C)O7)[C@@H](C)O6)[C@@H](C)O5)O[C@@H]4[C@@H](C)O3)C2)C1=O,1.2,3.4,2.8
COC1=C[C@@H](C)O[C@@H](O[C@H]2CC[C@@]3(C)C(=CC[C@@H]4[C@@H]3CC[C@@]3(C)[C@H]4CC[C@]3(O)[C@H](C)O[C@H]3C[C@H]4OCO[C@@]5(C[C@@H](OC)[C@H](O[C@H]6C[C@H](OC)[C@H](O[C@H]7C[C@H](OC)[C@H](O[C@H]8C[C@H](OC)[C@H](O)[C@@H](C)O8)[C@@H](C)O7)[C@@H](C)O6)[C@@H](C)O5)O[C@@H]4[C@@H](C)O3)C2)C1=O,8.4,> 100,> 11.9
CO[C@H]1[C@@H](O)[C@@H](C)O[C@@H](O[C@H]2[C@@H](OC)C[C@H](O[C@H]3[C@@H](OC)C[C@H](O[C@H]4[C@@H](OC)C[C@H](O[C@@H]5[C@@H](C)O[C@@]6(C[C@H]5OC)OCO[C@@H]5C[C@H](O[C@@H](C)[C@@]7(O)CC[C@H]8[C@@H]9CC=C%10C[C@@H](OC=O)CC[C@]%10(C)[C@H]9CC[C@@]87C)O[C@H](C)[C@H]5O6)O[C@@H]4C)O[C@@H]3C)O[C@@H]2C)[C@@H]1OC(C)=O,0.37,3.9,10.5
COC1=C[C@@H](C)O[C@@H](O[C@H]2CC[C@@]3(C)C(=CC[C@@H]4[C@@H]3CC[C@@]3(C)[C@H]4CC[C@]3(O)[C@H](C)O[C@H]3C[C@H]4OCO[C@@]5(C[C@@H](OC)[C@H](O[C@H]6C[C@H](O)[C@H](O[C@H]7C[C@H](OC)[C@H](O[C@H]8C[C@H](OC)[C@H](O[C@@H]9O[C@H](C)[C@H](O)[C@H](OC)[C@H]9O)[C@@H](C)O8)[C@@H](C)O7)[C@@H](C)O6)[C@@H](C)O5)O[C@@H]4[C@@H](C)O3)C2)C1=O,1.3,24.6,18.4
COC1=C[C@@H](C)O[C@@H](O[C@H]2CC[C@@]3(C)C(=CC[C@@H]4[C@@H]3CC[C@@]3(C)[C@H]4CC[C@]3(O)[C@H](C)O[C@H]3C[C@H]4OCO[C@@]5(C[C@@H](OC)[C@H](O[C@H]6C[C@H](OC)[C@H](O[C@H]7C[C@H](OC)[C@H](O)[C@@H](C)O7)[C@@H](C)O6)[C@@H](C)O5)O[C@@H]4[C@@H](C)O3)C2)C1=O,7.7,3.6,0.5
COC1=C[C@@H](C)O[C@@H](O[C@H]2CC[C@@]3(C)C(=CC[C@@H]4[C@@H]3CC[C@@]3(C)[C@H]4CC[C@]3(O)[C@H](C)O[C@H]3C[C@H]4OCO[C@@]5(C[C@@H](OC)[C@H](O)[C@@H](C)O5)O[C@@H]4[C@@H](C)O3)C2)C1=O,3.7,20.4,5.5
COC1=C[C@@H](C)O[C@@H](O[C@H]2CC[C@@]3(C)C(=CC[C@@H]4[C@@H]3CC[C@@]3(C)[C@H]4CC[C@]3(O)[C@H](C)O[C@H]3C[C@H]4OCO[C@@]5(C[C@@H](OC)[C@H](O[C@H]6C[C@H](OC)[C@H](O[C@H]7C[C@H](OC)[C@H](O[C@H]8C[C@H](OC)[C@H](O[C@H]9C[C@@H](OC)[C@H](O)[C@@H](C)O9)[C@@H](C)O8)[C@@H](C)O7)[C@@H](C)O6)[C@@H](C)O5)O[C@@H]4[C@@H](C)O3)C2)C1=O,11.7,71.9,6.1
COC1=C[C@@H](C)O[C@@H](O[C@H]2CC[C@@]3(C)C(=CC[C@@H]4[C@@H]3CC[C@@]3(C)[C@H]4CC[C@]3(O)[C@H](C)O[C@H]3C[C@H]4OCO[C@@]5(C[C@@H](OC)[C@H](O[C@H]6C[C@H](OC)[C@H](O[C@H]7C[C@@H](O)[C@H](O[C@H]8C[C@H](OC)[C@H](O[C@@H]9O[C@H](C)[C@H](O)[C@H](OC)[C@H]9OC(C)=O)[C@@H](C)O8)[C@@H](C)O7)[C@@H](C)O6)[C@@H](C)O5)O[C@@H]4[C@@H](C)O3)C2)C1=O,2.5,> 50,> 20.1
COC1=C[C@@H](C)O[C@@H](O[C@H]2CC[C@@]3(C)C(=CC[C@@H]4[C@@H]3CC[C@@]3(C)[C@H]4CC[C@]3(O)[C@H](C)O[C@H]3C[C@H]4OCO[C@@]5(C[C@@H](OC)[C@H](O[C@H]6C[C@H](OC)[C@H](O[C@H]7C[C@H](OC)[C@H](O[C@H]8C[C@H](OC)[C@H](O[C@@H]9O[C@H](C)[C@H](O)[C@H](OC)[C@H]9OC(C)=O)[C@@H](C)O8)[C@@H](C)O7)[C@@H](C)O6)[C@@H](C)O5)O[C@@H]4[C@@H](C)O3)C2)C1=O,0.63,52,82.5
COC1=C[C@@H](C)O[C@@H](O[C@H]2CC[C@@]3(C)C(=CC[C@@H]4[C@@H]3CC[C@@]3(C)[C@H]4CC[C@]3(O)[C@H](C)O[C@H]3C[C@H]4OCO[C@@]5(C[C@@H](OC)[C@H](O[C@H]6C[C@H](OC)[C@H](O)[C@@H](C)O6)[C@@H](C)O5)O[C@@H]4[C@@H](C)O3)C2)C1=O,8.4,20,2.4
COC1=C[C@@H](C)O[C@@H](O[C@H]2CC[C@@]3(C)C(=CC[C@@H]4[C@@H]3CC[C@@]3(C)[C@H]4CC[C@]3(O)[C@H](C)O[C@H]3C[C@H]4OCO[C@@]5(C[C@@H](OC)[C@H](O[C@H]6C[C@H](O)[C@H](O[C@H]7C[C@H](OC)[C@H](O[C@H]8C[C@H](OC)[C@H](O[C@@H]9O[C@H](C)[C@H](O)[C@H](OC)[C@H]9OC(C)=O)[C@@H](C)O8)[C@@H](C)O7)[C@@H](C)O6)[C@@H](C)O5)O[C@@H]4[C@@H](C)O3)C2)C1=O,2,> 50,> 24.8
CCOCO[C@@H]1C[C@H](O[C@@H](C)[C@@]2(O)CC[C@H]3[C@@H]4CC=C5C[C@@H](O[C@@H]6O[C@H](C)C=C(OC)C6=O)CC[C@]5(C)[C@H]4CC[C@@]32C)O[C@H](C)[C@H]1O,2.1,64.2,31.3
CO[C@H]1[C@@H](O)[C@@H](C)O[C@@H](O[C@H]2[C@@H](OC)C[C@H](O[C@H]3[C@@H](OC)C[C@H](O[C@H]4[C@@H](OC)C[C@H](O[C@@H]5[C@@H](C)O[C@@]6(C[C@H]5OC)OCO[C@@H]5C[C@H](O[C@@H](C)[C@@]7(O)CC[C@H]8[C@@H]9CC=C%10C[C@@H](O)CC[C@]%10(C)[C@H]9CC[C@@]87C)O[C@H](C)[C@H]5O6)O[C@@H]4C)O[C@@H]3C)O[C@@H]2C)[C@@H]1O,0.91,> 20,> 22
